Test results taken from PubChem BioAssay (NCI).
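Test compounds were applied to cells in 96-well plates for 48 hours at 5 doses. GI50 marks 50% less growth. Definition used: TGI = concentration required for complete inhibition of growth.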

Experiments:
Assay in all cases: NCI tumour cell line growth inhibition, 48 h
[1] = test system: OVCAR-4 ovarian
[2] = test system: CAKI-1 renal
[3] = test system: HCT-15 colon
[4] = test system: NCI/ADR-RES ovarian
[5] = test system: RPMI-8226 leukemia
[6] = test system: U251 CNS
[7] = test system: DU-145 prostate
[8] = test system: OVCAR-5 ovarian
[9] = test system: KM12 colon
[10] = test system: HCT-116 colon
[11] = test system: SK-MEL-5 melanoma
[12] = test system: NCI-H226 lung
[13] = test system: BT-549 breast
[14] = test system: TK-10 renal
[15] = test system: EKVX NSCLC
[16] = test system: HS 578T breast
[17] = test system: SF-295 CNS
[18] = test system: MOLT-4 leukemia
[19] = test system: OVCAR-8 ovarian
[20] = test system: A549 NSCLC
[21] = test system: K-562 leukemia
[22] = test system: UO-31 renal
[23] = test system: M14 melanoma
[24] = test system: HT29 colon
[25] = test system: SK-OV-3 ovarian
[26] = test system: MDA-MB-231 breast
[27] = test system: A498 renal
[28] = test system: HL-60(TB) leukemia
[29] = test system: MCF7 breast
[30] = test system: SK-MEL-2 melanoma
[31] = test system: UACC-257 melanoma
[32] = test system: SR leukemia
[33] = test system: UACC-62 melanoma
[34] = test system: SF-539 CNS
[35] = test system: COLO 205 colon
[36] = test system: OVCAR-3 ovarian
[37] = test system: NCI-H460 lung
[38] = test system: T-47D breast
[39] = test system: IGROV1 ovarian
[40] = test system: HOP-92 NSCLC
[41] = test system: NCI-H522 lung
[42] = test system: SNB-19 CNS
[43] = test system: 786-0 renal
[44] = test system: HCC-2998 colon
[45] = test system: NCI-H23 lung
[46] = test system: CCRF-CEM leukemia
[47] = test system: RXF 393 renal
[48] = test system: MDA-MB-435
[49] = test system: ACHN renal
[50] = test system: SW-620 colon
[51] = test system: PC-3 prostate
[52] = test system: HOP-62 NSCLC
[53] = test system: SK-MEL-28 melanoma
[54] = test system: LOX IMVI melanoma
[55] = test system: MALME-3M melanoma
[56] = test system: SN12C renal
[57] = test system: SF-268 CNS
[58] = test system: SNB-75 CNS

Structure (SMILES): CN(C)C(=O)O[C@@H]1CN[C@@H](C#Cc2cc3ncnc(Nc4ccc(OCc5cccc(F)c5)c(Cl)c4)c3s2)C1
- GI50 [1]: > 25 µM
- TGI [1]: > 25 µM
- GI50 [2]: 5.87 µM
- TGI [2]: > 25 µM
- GI50 [3]: > 25 µM
- TGI [3]: > 25 µM
- GI50 [4]: > 25 µM
- TGI [4]: > 25 µM
- GI50 [5]: 7.18 µM
- TGI [5]: > 25 µM
- GI50 [6]: > 21.2 µM
- TGI [6]: > 25 µM
- GI50 [7]: > 25 µM
- TGI [7]: > 25 µM
- GI50 [8]: > 25 µM
- TGI [8]: > 25 µM
- GI50 [9]: 9.85 µM
- TGI [9]: > 25 µM
- GI50 [10]: > 25 µM
- TGI [10]: > 25 µM
- GI50 [11]: > 25 µM
- TGI [11]: > 25 µM
- GI50 [12]: 9.22 µM
- TGI [12]: > 18.4 µM
- GI50 [13]: 7.93 µM
- TGI [13]: > 21.4 µM
- GI50 [14]: 4.7 µM
- TGI [14]: > 25 µM
- GI50 [15]: 5.14 µM
- TGI [15]: > 23.2 µM
- GI50 [16]: > 25 µM
- TGI [16]: > 25 µM
- GI50 [17]: > 25 µM
- TGI [17]: > 25 µM
- GI50 [18]: 6.73 µM
- TGI [18]: > 21.8 µM
- GI50 [19]: 18.7 µM
- TGI [19]: > 25 µM
- GI50 [20]: 7.82 µM
- TGI [20]: > 25 µM
- GI50 [21]: > 25 µM
- TGI [21]: > 25 µM
- GI50 [22]: 5.22 µM
- TGI [22]: > 20.9 µM
- GI50 [23]: > 25 µM
- TGI [23]: > 25 µM
- GI50 [24]: > 25 µM
- TGI [24]: > 25 µM
- GI50 [25]: 406 nM
- TGI [25]: > 25 µM
- GI50 [26]: 6.6 µM
- TGI [26]: > 20 µM
- GI50 [27]: 5.65 µM
- TGI [27]: > 19.7 µM
- GI50 [28]: 9.86 µM
- TGI [28]: > 22 µM
- GI50 [29]: > 25 µM
- TGI [29]: > 25 µM
- GI50 [30]: > 25 µM
- TGI [30]: > 25 µM
- GI50 [31]: > 25 µM
- TGI [31]: > 25 µM
- GI50 [32]: 20.1 µM
- TGI [32]: > 25 µM
- GI50 [33]: > 25 µM
- TGI [33]: > 25 µM
- GI50 [34]: 8.58 µM
- TGI [34]: > 25 µM
- GI50 [35]: > 25 µM
- TGI [35]: > 25 µM
- GI50 [36]: 7.51 µM
- TGI [36]: > 25 µM
- GI50 [37]: 8.33 µM
- TGI [37]: > 25 µM
- GI50 [38]: 11.2 µM
- TGI [38]: > 25 µM
- GI50 [39]: 13.1 µM
- TGI [39]: > 25 µM
- GI50 [40]: 6.5 µM
- TGI [40]: > 25 µM
- GI50 [41]: 2140 nM
- TGI [41]: > 10.5 µM
- GI50 [42]: > 25 µM
- TGI [42]: > 25 µM
- GI50 [43]: 9.48 µM
- TGI [43]: > 21.7 µM
- GI50 [44]: 14.1 µM
- TGI [44]: > 25 µM
- GI50 [45]: > 25 µM
- TGI [45]: > 25 µM
- GI50 [46]: 2780 nM
- TGI [46]: > 25 µM
- GI50 [47]: > 20.4 µM
- TGI [47]: > 25 µM
- GI50 [48]: > 25 µM
- TGI [48]: > 25 µM
- GI50 [49]: 18.9 µM
- TGI [49]: > 25 µM
- GI50 [50]: > 25 µM
- TGI [50]: > 25 µM
- GI50 [51]: 8.53 µM
- TGI [51]: > 25 µM
- GI50 [52]: > 25 µM
- TGI [52]: > 25 µM
- GI50 [53]: > 25 µM
- TGI [53]: > 25 µM
- GI50 [54]: > 25 µM
- TGI [54]: > 25 µM
- GI50 [55]: 9.41 µM
- TGI [55]: > 25 µM
- GI50 [56]: 8.01 µM
- TGI [56]: > 25 µM
- GI50 [57]: 14.5 µM
- TGI [57]: > 25 µM
- GI50 [58]: > 19.4 µM
- TGI [58]: > 25 µM
